{
  "source": "patent US20200239530A1",
  "about": "“COMPOUNDS AND METHODS OF MODULATING PROTEIN DEGRADATION” (Vividion Therapeutics, Inc., priority 2017, published 2020)",
  "assay_in_all_cases": "Cysteine liganding, probe competition",
  "type_in_all_cases": "binding",
  "key": {"[1]": {"target": "T1, MT-ND5 NADH-ubiquinone oxidoreductase chain 5 (Homo sapiens, UniProt P03915)", "T1 construct": "Cells were resuspended in cold PBS on ice and sonicated with a probe sonicator to achieve lysis; endogenous in cells", "T1 sequence (P03915 whole entry)": "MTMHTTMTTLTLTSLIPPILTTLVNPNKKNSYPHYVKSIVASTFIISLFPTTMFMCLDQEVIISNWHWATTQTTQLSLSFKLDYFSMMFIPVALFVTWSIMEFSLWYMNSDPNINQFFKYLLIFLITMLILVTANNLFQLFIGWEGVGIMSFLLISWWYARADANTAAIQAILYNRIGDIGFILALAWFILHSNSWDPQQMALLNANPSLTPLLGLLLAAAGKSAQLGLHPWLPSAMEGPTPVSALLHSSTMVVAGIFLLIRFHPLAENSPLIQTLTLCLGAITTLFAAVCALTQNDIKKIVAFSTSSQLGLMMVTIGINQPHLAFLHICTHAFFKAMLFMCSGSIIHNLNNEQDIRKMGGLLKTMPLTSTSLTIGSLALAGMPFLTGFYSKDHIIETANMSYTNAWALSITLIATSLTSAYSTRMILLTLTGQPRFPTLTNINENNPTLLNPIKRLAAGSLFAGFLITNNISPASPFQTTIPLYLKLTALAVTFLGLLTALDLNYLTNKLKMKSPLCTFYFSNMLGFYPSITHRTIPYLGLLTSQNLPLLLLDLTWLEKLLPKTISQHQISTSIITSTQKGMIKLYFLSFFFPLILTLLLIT", "conditions": "for Liganded: MT-ND5 Res# 518, uniprot P03915", "outline": "(§1)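 Steps: sonicate cells in cold PBS; treat 5 mg/ml lysate with compound (25° C, 1 hr); add desthiobiotin iodoacetamide probe from a 10 mM stock (25° C, 1 hr); precipitate, reduce, alkylate, digest with trypsin; capture labelled peptides on streptavidin for analysis.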"}, "[2]": {"target": "T2, PPCDC Phosphopantothenoylcysteine decarboxylase (Homo sapiens, UniProt Q96CD2)", "T2 construct": "Cells were resuspended in cold PBS on ice and sonicated with a probe sonicator to achieve lysis; endogenous in cells", "T2 sequence (Q96CD2 1-204)": "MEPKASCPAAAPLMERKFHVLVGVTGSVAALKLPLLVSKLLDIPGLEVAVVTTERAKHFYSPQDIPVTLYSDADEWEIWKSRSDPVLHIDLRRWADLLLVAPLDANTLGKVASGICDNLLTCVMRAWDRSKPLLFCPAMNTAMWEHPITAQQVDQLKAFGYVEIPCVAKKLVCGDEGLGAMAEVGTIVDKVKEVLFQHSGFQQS", "outline": "as §1"}, "[3]": {"target": "T3, EEF1A1 Elongation factor 1-alpha 1 (Homo sapiens, UniProt P68104)", "T3 construct": "200 μL of lysate containing 5 mg/ml proteome was treated with 2 μL of 100× compound stock; endogenous in cells", "T3 sequence (P68104 1-462)": "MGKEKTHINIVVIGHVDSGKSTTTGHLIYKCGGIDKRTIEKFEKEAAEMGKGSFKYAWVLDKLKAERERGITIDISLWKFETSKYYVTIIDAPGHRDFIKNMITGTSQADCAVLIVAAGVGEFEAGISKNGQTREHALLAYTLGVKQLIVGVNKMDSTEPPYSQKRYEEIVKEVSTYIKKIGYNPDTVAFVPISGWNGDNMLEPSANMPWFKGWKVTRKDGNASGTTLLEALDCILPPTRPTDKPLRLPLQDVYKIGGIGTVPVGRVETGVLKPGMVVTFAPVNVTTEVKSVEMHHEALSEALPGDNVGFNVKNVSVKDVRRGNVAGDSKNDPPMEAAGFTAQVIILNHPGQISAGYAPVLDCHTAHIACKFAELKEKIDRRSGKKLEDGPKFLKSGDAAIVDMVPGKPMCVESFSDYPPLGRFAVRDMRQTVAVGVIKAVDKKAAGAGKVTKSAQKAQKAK", "outline": "as §1"}, "[4]": {"target": "T4, FLYWCH2 FLYWCH family member 2 (Homo sapiens, UniProt Q96CP2)", "T4 construct": "200 μL of lysate containing 5 mg/ml proteome was treated with 2 μL of 100× compound stock; endogenous in cells", "T4 sequence (Q96CP2 1-140)": "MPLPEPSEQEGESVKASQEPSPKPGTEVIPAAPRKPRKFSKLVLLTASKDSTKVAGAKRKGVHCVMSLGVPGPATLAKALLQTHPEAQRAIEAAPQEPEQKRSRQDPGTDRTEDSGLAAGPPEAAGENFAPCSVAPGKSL", "outline": "as §1"}, "[5]": {"conditions": "EEF1A1 Res# 363, uniprot P68104"}, "[6]": {"conditions": "EEF1A1 Res# 370, uniprot P68104"}},
  "data": [
    {"smiles": "COc1ccc2c(c1)CCCN2C(=O)CCl", "note": "[KB02]", "values": [
      {"measurement": "Liganded", "setting": "[1]", "result": "YES"},
      {"measurement": "Liganded", "setting": "[2]; PPCDC Res# 173, uniprot Q96CD2", "result": "YES"},
      {"measurement": "Liganded", "setting": "[3]; [5]", "result": "YES"},
      {"measurement": "Liganded", "setting": "[3]; [6]", "result": "YES"},
      {"measurement": "Liganded", "setting": "[4]; FLYWCH2 Res# 64, uniprot Q96CP2", "result": "YES"}
    ]},
    {"smiles": "O=C(CCl)Nc1cc(C(F)(F)F)cc(C(F)(F)F)c1", "note": "[KBO3]", "values": [
      {"measurement": "Liganded", "setting": "[1]", "result": "YES"},
      {"measurement": "100 ave", "setting": "[1]; uniprot P03915", "result": 83.61},
      {"measurement": "100 Max", "setting": "[1]; uniprot P03915, in % (unit assumed)", "result": 83.61},
      {"measurement": "100 Max", "setting": "[2]; uniprot Q96CD2", "result": 23.85},
      {"measurement": "100 ave", "setting": "[2]; uniprot Q96CD2", "result": 13.215},
      {"measurement": "500 Max", "setting": "[2]; uniprot Q96CD2", "result": 71.73},
      {"measurement": "500 ave", "setting": "[2]; uniprot Q96CD2", "result": 71.73},
      {"measurement": "Liganded", "setting": "[3]; [5]", "result": "YES"},
      {"measurement": "Liganded", "setting": "[3]; [6]", "result": "YES"},
      {"measurement": "100 Max", "setting": "[4]; uniprot Q96CP2", "result": 12.97},
      {"measurement": "100 ave", "setting": "[4]; uniprot Q96CP2", "result": 2.25},
      {"measurement": "500 Max", "setting": "[4]; uniprot Q96CP2", "result": 41.66},
      {"measurement": "500 ave", "setting": "[4]; uniprot Q96CP2", "result": 41.635}
    ]}
  ]
}
